Assay results taken from ChEMBL document CHEMBL1857833, “Screening and optimization of specific chemical series against human African Trypanosomiasis (HAT)”.
In brackets after ≈: the same amount, converted by molar mass. Several values for one entry are separate records, joined by “and”; a condition that tells them apart may be missing. Identical values can stand only once.

Test system: Trypanosoma brucei
Assay: DNDI: Inhibition of Human African Trypanosomiasis, SBRI 427, in vitro
Type: functional, organism-based
[1] = Trypanosoma brucei, SBRI 427, read-out: IC50

IC50 [1] [µg/mL] | IC50 | Structure (SMILES)
1.6 (≈ 4.17 µM) |  | CSc1ccc(Oc2ccc(/C(=N/O)NCc3ccccc3F)cn2)cc1
2.92 (≈ 7.74 µM) |  | COc1ccc(-c2nc(CNC3CCN(Cc4ccccc4)CC3)co2)cc1
1.24 (≈ 3.21 µM) |  | O/N=C(/c1ccc(Oc2ccc(Cl)cc2)nc1)N1CCC2CCCCC2C1 (stereo unspecified)
1.22 (≈ 4.29 µM) | 1.69 µg/mL (≈ 5.94 µM) | CC(C)(C)c1ccc(-c2nc(CNCC3CC3)co2)cc1
2.64 (≈ 7.28 µM) |  | CC(C)c1cccc(Oc2ccc(/C(=N/O)NCc3ccncc3)cn2)c1
> 5 |  | CC1(C)[C@H]2CC[C@@H](CNCc3coc(-c4ccc(F)cc4)n3)[C@@H]1C2
1.6 (≈ 4.45 µM) |  | O/N=C(\NCC1CCCCC1)c1ccc(Oc2ccc(Cl)cc2)nc1
2.81 (≈ 7.13 µM) |  | O/N=C(\NCC1CCCCC1)c1ccc(Oc2cc(Cl)ccc2Cl)nc1
2.13 (≈ 6.65 µM) | 1.83 µg/mL (≈ 5.71 µM) | CCC1CCCCN1Cc1coc(-c2cccc3ccccc23)n1 (stereo unspecified)
1.37 (≈ 4.32 µM) |  | Cc1ccc(/C(=N/O)NCC(C)C)c(Oc2cccc(F)c2)n1
0.9 (≈ 2.5 µM) |  | C[C@H]1C(NCc2coc(-c3cccc4ccccc34)n2)C[C@@H]2C[C@H]1C2(C)C (stereo partly specified)
1.62 (≈ 5.39 µM) | 2.86 µg/mL (≈ 9.52 µM) | CC(C)(C)CNCc1coc(-c2ccc(C(C)(C)C)cc2)n1
0.45 (≈ 1.36 µM) |  | Cc1ccc(/C(=N/O)NCC(C)(C)C)c(Oc2cccc(F)c2)n1
1.31 (≈ 3.85 µM) |  | COc1ccc(-c2nc(CNC[C@@H]3CC[C@H]4C[C@@H]3C4(C)C)co2)cc1
1.22 (≈ 3.13 µM) | 1.95 µg/mL (≈ 5.01 µM) | C[C@@H]1C(NCc2coc(-c3ccccc3Br)n2)C[C@H]2C[C@@H]1C2(C)C (stereo partly specified)
1.32 (≈ 3.98 µM) |  | O/N=C(\NC1CCCC1)c1ccc(Oc2ccc(Cl)cc2)nc1

More lines, now with the values behind:

Structure (SMILES) | IC50 [1] [µg/mL] | IC50
CCOc1ccccc1-c1nc(CNC2CCCCCCCCCCC2)co1 | 1.51 (≈ 3.93 µM) | 1.37 µg/mL (≈ 3.56 µM)
CC1CCC(N/C(=N\O)c2ccc(Oc3ccc(Cl)cc3)nc2)CC1 (stereo unspecified) | 1.42 (≈ 3.95 µM) | 
CCOc1ccc(-c2nc(CNC(C)C3CCCCC3)co2)cc1 (stereo unspecified) | 1.44 (≈ 4.38 µM) | 1.96 µg/mL (≈ 5.97 µM)
COc1cccc(Oc2ccc(/C(=N/O)NC3CCCCC3)cn2)c1 | 1.23 (≈ 3.6 µM) | 
Cc1ccc(/C(=N/O)NCc2ccccc2F)c(Oc2cc(Cl)ccc2Cl)n1 | > 5 | 
C[C@@H]1C(NCc2coc(-c3cccc4ccccc34)n2)C[C@H]2C[C@@H]1C2(C)C (stereo partly specified) | 0.94 (≈ 2.61 µM) | 
COc1ccccc1CN/C(=N\O)c1ccc(C)nc1Oc1cc(Cl)ccc1Cl | 3.98 (≈ 9.21 µM) | 
CC(C)c1cccc(Oc2ccc(/C(=N/O)N(C)Cc3cccnc3)cn2)c1 | 2.5 (≈ 6.64 µM) | 
O/N=C(\NCc1cccs1)c1ccc(Oc2cccc(F)c2)nc1 | 1.93 (≈ 5.62 µM) | 
CCC(CC)N/C(=N\O)c1ccc(Oc2cc(Cl)ccc2Cl)nc1 | 1.35 (≈ 3.67 µM) | 
Cc1ccc([C@@H](C)NCc2coc(-c3cccc4ccccc34)n2)cc1 | 1.86 (≈ 5.43 µM) | 
CN(Cc1coc(-c2cccc3ccccc23)n1)C1CCCCC1 | 2.01 (≈ 6.27 µM) | 1.3 µg/mL (≈ 4.06 µM)
CCN(CCN(C)C)Cc1coc(-c2ccc(C(C)(C)C)cc2)n1 | 3.09 (≈ 9.38 µM) | 1.87 µg/mL (≈ 5.68 µM)
COc1ccc(-c2nc(CNCCCN3CCCCC3C)co2)cc1 (stereo unspecified) | > 5 | 
COc1cccc(Oc2ccc(/C(=N/O)NCC3CCCCC3)cn2)c1 | 2.15 (≈ 6.05 µM) | 
C=CCc1ccc(Oc2ccc(/C(=N/O)NCc3ccncc3)cn2)c(OC)c1 | 2.1 (≈ 5.38 µM) | 
CCC(CC)N/C(=N\O)c1ccc(Oc2ccc(Cl)cc2)nc1 | 1.63 (≈ 4.88 µM) | 
Clc1ccc(-c2nc(CNCCCn3ccnc3)co2)c(Cl)c1 | 2.02 (≈ 5.75 µM) | 
CC(NCc1coc(-c2cccc3ccccc23)n1)C1CCCCC1 (stereo unspecified) | 1.34 (≈ 4.01 µM) | 1.7 µg/mL (≈ 5.08 µM)
CCN(CC)CCCC(C)NCc1coc(-c2ccccc2Cl)n1 (stereo unspecified) | > 5 | 
c1ccc2c(-c3nc(CNCCCN4CCCC4)co3)cccc2c1 | 0.62 (≈ 1.85 µM) | 
Cc1ccc(/C(=N/O)NCc2cc(F)cc(F)c2)c(Oc2cc(Cl)ccc2Cl)n1 | 2.52 (≈ 5.75 µM) | 
COc1cccc(Oc2ccc(/C(=N/O)NC3CCC(C)CC3)cn2)c1 (stereo unspecified) | 1.97 (≈ 5.54 µM) | 
CC1CCCCN1CCCNCc1coc(-c2cccc3ccccc23)n1 (stereo unspecified) | 2.07 (≈ 5.69 µM) | 
O/N=C(\NC1CCCCC1)c1ccc(Oc2cc(Cl)ccc2Cl)nc1 | 1.3 (≈ 3.42 µM) | 
CCOc1cccc(-c2nc(CNCCC3CCCN3C)co2)c1 (stereo unspecified) |  | 1.78 µg/mL and 4.05 µg/mL
